Blank lines part the entries; values can stand above or below the molecule they belong to.
How the values were obtained:
Leishmania donovani [1] = assay: Antileishmanial activity against Leishmania donovani BPK043 amastigotes infected in Swiss mouse primary peritoneal mouse macrophages assessed as reduction of total parasite burden after 5 days; format: functional, organism-based
Leishmania donovani [2] = assay: Antileishmanial activity against Leishmania donovani BPK091 amastigotes infected in Swiss mouse primary peritoneal mouse macrophages assessed as reduction of total parasite burden after 5 days; format: functional, organism-based
Leishmania donovani [3] = assay: Antileishmanial activity against Leishmania donovani BPK178 amastigotes infected in Swiss mouse primary peritoneal mouse macrophages assessed as reduction of total parasite burden after 5 days; format: functional, organism-based
Leishmania donovani [4] = assay: Antileishmanial activity against Leishmania donovani BPK206 amastigotes infected in Swiss mouse primary peritoneal mouse macrophages assessed as reduction of total parasite burden after 5 days; format: functional, organism-based
Leishmania donovani [5] = assay: Antileishmanial activity against Leishmania donovani BPK206cl amastigotes infected in Swiss mouse primary peritoneal mouse macrophages assessed as reduction of total parasite burden after 5 days; format: functional, organism-based
Leishmania donovani [6] = assay: Antileishmanial activity against Leishmania donovani BPK274 amastigotes infected in Swiss mouse primary peritoneal mouse macrophages assessed as reduction of total parasite burden after 5 days; format: functional, organism-based
Leishmania donovani [7] = assay: Antileishmanial activity against Leishmania donovani BPK294 amastigotes infected in Swiss mouse primary peritoneal mouse macrophages assessed as reduction of total parasite burden after 5 days; format: functional, organism-based
Leishmania donovani [8] = assay: Antileishmanial activity against Leishmania donovani BPK298 amastigotes infected in Swiss mouse primary peritoneal mouse macrophages assessed as reduction of total parasite burden after 5 days; format: functional, organism-based
Leishmania donovani [9] = assay: Antileishmanial activity against Leishmania donovani BPK177 amastigotes infected in Swiss mouse primary peritoneal mouse macrophages assessed as reduction of total parasite burden after 5 days; format: functional, organism-based
Leishmania donovani [10] = assay: Antileishmanial activity against Leishmania donovani BPK190 amastigotes infected in Swiss mouse primary peritoneal mouse macrophages assessed as reduction of total parasite burden after 5 days; format: functional, organism-based
Leishmania donovani [11] = assay: Antileishmanial activity against Leishmania donovani BPK190cl amastigotes infected in Swiss mouse primary peritoneal mouse macrophages assessed as reduction of total parasite burden after 5 days; format: functional, organism-based
Leishmania guyanensis [12] = assay: Antileishmanial activity against Leishmania guyanensis PER106 amastigotes infected in Swiss mouse primary peritoneal mouse macrophages assessed as reduction of total parasite burden after 5 days; format: functional, organism-based
Leishmania guyanensis [13] = assay: Antileishmanial activity against Leishmania guyanensis PER008 amastigotes infected in Swiss mouse primary peritoneal mouse macrophages assessed as reduction of total parasite burden after 5 days; format: functional, organism-based
Leishmania guyanensis [14] = assay: Antileishmanial activity against Leishmania guyanensis PER054 amastigotes infected in Swiss mouse primary peritoneal mouse macrophages assessed as reduction of total parasite burden after 5 days; format: functional, organism-based
Leishmania guyanensis [15] = assay: Antileishmanial activity against Leishmania guyanensis PER072 amastigotes infected in Swiss mouse primary peritoneal mouse macrophages assessed as reduction of total parasite burden after 5 days; format: functional, organism-based
Leishmania guyanensis [16] = assay: Antileishmanial activity against Leishmania guyanensis PER080 amastigotes infected in Swiss mouse primary peritoneal mouse macrophages assessed as reduction of total parasite burden after 5 days; format: functional, organism-based
Leishmania braziliensis [17] = assay: Antileishmanial activity against Leishmania braziliensis PER002cl amastigotes infected in Swiss mouse primary peritoneal mouse macrophages assessed as reduction of total parasite burden after 5 days; format: functional, organism-based
Leishmania braziliensis [18] = assay: Antileishmanial activity against Leishmania braziliensis PER005cl amastigotes infected in Swiss mouse primary peritoneal mouse macrophages assessed as reduction of total parasite burden after 5 days; format: functional, organism-based
Leishmania donovani [19] = assay: Activity index, ratio of IC50 for Leishmania donovani BPK091 to IC50 for Leishmania donovani BPK043; format: functional, organism-based
Leishmania donovani [20] = assay: Activity index, ratio of IC50 for Leishmania donovani BPK178 to IC50 for Leishmania donovani BPK043; format: functional, organism-based
Leishmania donovani [21] = assay: Activity index, ratio of IC50 for Leishmania donovani BPK206 to IC50 for Leishmania donovani BPK043; format: functional, organism-based
Leishmania donovani [22] = assay: Activity index, ratio of IC50 for Leishmania donovani BPK206cl to IC50 for Leishmania donovani BPK043; format: functional, organism-based
Leishmania donovani [23] = assay: Activity index, ratio of IC50 for Leishmania donovani BPK274 to IC50 for Leishmania donovani BPK043; format: functional, organism-based
Leishmania donovani [24] = assay: Activity index, ratio of IC50 for Leishmania donovani BPK294 to IC50 for Leishmania donovani BPK043; format: functional, organism-based
Leishmania donovani [25] = assay: Activity index, ratio of IC50 for Leishmania donovani BPK298 to IC50 for Leishmania donovani BPK043; format: functional, organism-based
Leishmania donovani [26] = assay: Activity index, ratio of IC50 for Leishmania donovani BPK177 to IC50 for Leishmania donovani BPK043; format: functional, organism-based
Leishmania donovani [27] = assay: Activity index, ratio of IC50 for Leishmania donovani BPK190 to IC50 for Leishmania donovani BPK043; format: functional, organism-based
Leishmania donovani [28] = assay: Activity index, ratio of IC50 for Leishmania donovani BPK190cl to IC50 for Leishmania donovani BPK043; format: functional, organism-based
Leishmania guyanensis [29] = assay: Activity index, ratio of IC50 for Leishmania guyanensis PER008 to IC50 for Leishmania guyanensis PER106; format: functional, organism-based
Leishmania guyanensis [30] = assay: Activity index, ratio of IC50 for Leishmania guyanensis PER054 to IC50 for Leishmania guyanensis PER106; format: functional, organism-based
Leishmania guyanensis [31] = assay: Activity index, ratio of IC50 for Leishmania guyanensis PER072 to IC50 for Leishmania guyanensis PER106; format: functional, organism-based
Leishmania guyanensis [32] = assay: Activity index, ratio of IC50 for Leishmania guyanensis PER080 to IC50 for Leishmania guyanensis PER106; format: functional, organism-based
[33] = Activity index, ratio of IC50 for Leishmania braziliensis PER002cl to IC50 for Leishmania guyanensis PER106; format: functional
[34] = Activity index, ratio of IC50 for Leishmania braziliensis PER005cl to IC50 for Leishmania guyanensis PER106; format: functional

Molecule: CCCCCCCCCCCCCCCCOP(=O)([O-])OCC[N+](C)(C)C [MILTEFOSINE]
IC50 (Leishmania donovani [1]; Leishmania donovani, BPK043, 120 h, read-out: IC50): 1.5 µM
IC50 (Leishmania donovani [2]; Leishmania donovani, BPK091, 120 h, read-out: IC50): 3.2 µM
IC50 (Leishmania donovani [3]; Leishmania donovani, BPK178, 120 h, read-out: IC50): 5.5 µM
IC50 (Leishmania donovani [4]; Leishmania donovani, BPK206, 120 h, read-out: IC50): 4 µM
IC50 (Leishmania donovani [5]; Leishmania donovani, BPK206cl, 120 h, read-out: IC50): 2 µM
IC50 (Leishmania donovani [6]; Leishmania donovani, BPK274, 120 h, read-out: IC50): 7.1 µM
IC50 (Leishmania donovani [7]; Leishmania donovani, BPK294, 120 h, read-out: IC50): 3 µM
IC50 (Leishmania donovani [8]; Leishmania donovani, BPK298, 120 h, read-out: IC50): 3.4 µM
IC50 (Leishmania donovani [9]; Leishmania donovani, BPK177, 120 h, read-out: IC50): 2 µM
IC50 (Leishmania donovani [10]; Leishmania donovani, BPK190, 120 h, read-out: IC50): 4.5 µM
IC50 (Leishmania donovani [11]; Leishmania donovani, BPK190cl, 120 h, read-out: IC50): 3 µM
IC50 (Leishmania guyanensis [12]; Leishmania guyanensis, PER106, 120 h, read-out: IC50): 10 µM
IC50 (Leishmania guyanensis [13]; Leishmania guyanensis, PER008, 120 h, read-out: IC50): 5 µM
IC50 (Leishmania guyanensis [14]; Leishmania guyanensis, PER054, 120 h, read-out: IC50): 9.5 µM
IC50 (Leishmania guyanensis [15]; Leishmania guyanensis, PER072, 120 h, read-out: IC50): 10 µM
IC50 (Leishmania guyanensis [16]; Leishmania guyanensis, PER080, 120 h, read-out: IC50): 7.5 µM
IC50 (Leishmania braziliensis [17]; Leishmania braziliensis, PER002cl, 120 h, read-out: IC50): 10.3 µM
IC50 (Leishmania braziliensis [18]; Leishmania braziliensis, PER005cl, 120 h, read-out: IC50): 10 µM

IC50 (Leishmania donovani [1]): 6 µg/mL
IC50 (Leishmania donovani [2]): 24.2 µg/mL
IC50 (Leishmania donovani [3]): 21.8 µg/mL
IC50 (Leishmania donovani [4]): 11 µg/mL
IC50 (Leishmania donovani [5]): 5 µg/mL
IC50 (Leishmania donovani [6]): 16.2 µg/mL
IC50 (Leishmania donovani [7]): 6 µg/mL
IC50 (Leishmania donovani [8]): 12 µg/mL
IC50 (Leishmania donovani [9]): 32 µg/mL
IC50 (Leishmania donovani [10]): 27.3 µg/mL
IC50 (Leishmania donovani [11]): 24 µg/mL
IC50 (Leishmania guyanensis [12]): 12 µg/mL
IC50 (Leishmania guyanensis [13]): 18 µg/mL
IC50 (Leishmania guyanensis [14]): 18 µg/mL
IC50 (Leishmania guyanensis [15]): 19 µg/mL
IC50 (Leishmania guyanensis [16]): 14.5 µg/mL
IC50 (Leishmania braziliensis [17]): 13.5 µg/mL
IC50 (Leishmania braziliensis [18]): 25 µg/mL
Molecule: POTASSIUM ANTIMONYL TARTRATE TRIHYDRATE [listing 1 of 2 here]

Molecule: POTASSIUM ANTIMONYL TARTRATE TRIHYDRATE [listing 2 of 2 here]
Ratio IC50 (Leishmania donovani [19]): 3.9
Ratio IC50 (Leishmania donovani [20]): 3.6
Ratio IC50 (Leishmania donovani [21]): 1.8
Ratio IC50 (Leishmania donovani [22]): 0.8
Ratio IC50 (Leishmania donovani [23]): 2.7
Ratio IC50 (Leishmania donovani [24]): 1
Ratio IC50 (Leishmania donovani [25]): 2
Ratio IC50 (Leishmania donovani [26]): 5.3
Ratio IC50 (Leishmania donovani [27]): 4.5
Ratio IC50 (Leishmania donovani [28]): 4
Ratio IC50 (Leishmania guyanensis [29]): 1.6
Ratio IC50 (Leishmania guyanensis [30]): 1.6
Ratio IC50 (Leishmania guyanensis [31]): 1.6
Ratio IC50 (Leishmania guyanensis [32]): 1.4
Ratio IC50 [33]: 1.3
Ratio IC50 [34]: 2.4

Molecule: sodium stibogluconate
Ratio IC50 (Leishmania donovani [19]): 3.2
Ratio IC50 (Leishmania donovani [20]): 3.1
Ratio IC50 (Leishmania donovani [21]): 3.6
Ratio IC50 (Leishmania donovani [22]): 5.5
Ratio IC50 (Leishmania donovani [23]): 3.2
Ratio IC50 (Leishmania donovani [24]): 1.5
Ratio IC50 (Leishmania donovani [25]): 1.9
Ratio IC50 (Leishmania donovani [26]): 6.6
Ratio IC50 (Leishmania donovani [27]): 6.6
Ratio IC50 (Leishmania donovani [28]): 4.2
Ratio IC50 (Leishmania guyanensis [29]): 3.2
Ratio IC50 (Leishmania guyanensis [30]): 4
Ratio IC50 (Leishmania guyanensis [31]): 6
Ratio IC50 (Leishmania guyanensis [32]): 2.5
Ratio IC50 [33]: 4.5
Ratio IC50 [34]: 5.8
